Data from PMC7237647, “Synthesis, in vitro and in vivo evaluation of ^11C-O-methylated arylpiperazines as potential serotonin 1A (5-HT1A) receptor antagonist radiotracers” (EJNMMI Radiopharmacy and Chemistry, 2020).
pKi: −log10 of the molar value.

Legend:
[1] = biological target: T1, NOP (Homo sapiens, UniProt P41146); assay: NIMH-PDSP radioligand binding assay, NOP
T1 construct: NIMH-PDSP
Procedure: (§1) . Cross selectivity for biogenic amines, neurotransmitter receptors, and transporters were determined by radioligand binding assays through NIMH- PDSP using validated and established protocols ([NIMH-PDSP Assay Protocol Book Version III, March 2018]).

[2] = biological target: H1-H4; assay: NIMH-PDSP radioligand binding assay, H1-H4
[3] = biological target: T2, Alpha2B (Homo sapiens, UniProt P18089); assay: NIMH-PDSP radioligand binding assay, Alpha2B
T2 construct: NIMH-PDSP

[4] = biological target: T3, 5-HT4 (Homo sapiens, UniProt Q13639); assay: NIMH-PDSP radioligand binding assay, 5-HT4
T3 construct: NIMH-PDSP
Procedure: as §1

[5] = biological target: T4, D4R (Homo sapiens, UniProt P21917); assay: NIMH-PDSP radioligand binding assay, D4R
T4 construct: NIMH-PDSP
T4 sequence (P21917 1-419): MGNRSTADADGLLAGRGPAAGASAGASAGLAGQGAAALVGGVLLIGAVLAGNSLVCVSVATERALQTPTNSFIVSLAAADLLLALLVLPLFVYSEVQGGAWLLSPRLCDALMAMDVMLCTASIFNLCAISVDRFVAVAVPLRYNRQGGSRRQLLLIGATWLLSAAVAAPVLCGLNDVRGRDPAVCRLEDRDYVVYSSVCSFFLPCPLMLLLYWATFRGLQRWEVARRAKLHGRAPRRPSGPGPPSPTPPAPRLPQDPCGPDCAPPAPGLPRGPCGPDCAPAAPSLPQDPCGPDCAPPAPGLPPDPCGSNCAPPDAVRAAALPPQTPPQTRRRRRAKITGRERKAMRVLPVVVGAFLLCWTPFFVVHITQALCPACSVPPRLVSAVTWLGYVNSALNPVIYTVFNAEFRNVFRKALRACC
Procedure: as §1

[6] = biological target: T5, Alpha 2A (Homo sapiens, UniProt P08913); assay: NIMH-PDSP radioligand binding assay, Alpha 2A
T5 construct: NIMH-PDSP

[7] = biological target: AMPA; assay: NIMH-PDSP radioligand binding assay, AMPA
[8] = biological target: T6, 5-HT2B (Homo sapiens, UniProt P41595); assay: NIMH-PDSP radioligand binding assay, 5-HT2B
T6 construct: NIMH-PDSP
Procedure: as §1

[9] = biological target: T7, 5-HT6 (Homo sapiens, UniProt P50406); assay: NIMH-PDSP radioligand binding assay, 5-HT6
T7 construct: NIMH-PDSP
Procedure: as §1

[10] = biological target: T8, 5-HT2A (Homo sapiens, UniProt P28223); set-up: method as in ref Fiorino et al. [2012]; Fiorino et al. [2016]; Fiorino et al. [2017]; details: previous preliminary pharmacological screening; ref Fiorino et al. [2012]; Fiorino et al. [2016]; Fiorino et al. [2017]; cited from earlier work
T8 construct: NIMH-PDSP

[11] = biological target: DAT (Homo sapiens, UniProt Q01959); assay: NIMH-PDSP radioligand binding assay, DAT
Procedure: as §1

[12] = biological target: T9, PBR (Rattus norvegicus, UniProt P16257); assay: NIMH-PDSP radioligand binding assay, PBR
T9 construct: NIMH-PDSP
Procedure: as §1

[13] = biological target: T10, D2R (Homo sapiens, UniProt P14416); assay: NIMH-PDSP radioligand binding assay, D2R
T10 construct: NIMH-PDSP

[14] = biological target: SERT (Homo sapiens, UniProt P31645); assay: NIMH-PDSP radioligand binding assay, SERT
Procedure: as §1

[15] = biological target: NMDA; assay: NIMH-PDSP radioligand binding assay, NMDA
[16] = biological target: Muscarinic receptors; assay: NIMH-PDSP radioligand binding assay, Muscarinic receptors
[17] = biological target: T11, 5-HT1A receptor (Homo sapiens, UniProt P08908); assay: Competition binding with [^3H]WAY100635 at 5-HT1A receptors (NIMH-PDSP); details: for pKi: competition with [^3H]WAY100635, 12 concentrations (10 μM to 1 pM), triplicate, cells expressing 5-HT1A receptor; for Binding affinity ratios of 5-HT1A and α1-adrenergic receptors: in vitro Ki ratio
T11 sequence (P08908 1-422): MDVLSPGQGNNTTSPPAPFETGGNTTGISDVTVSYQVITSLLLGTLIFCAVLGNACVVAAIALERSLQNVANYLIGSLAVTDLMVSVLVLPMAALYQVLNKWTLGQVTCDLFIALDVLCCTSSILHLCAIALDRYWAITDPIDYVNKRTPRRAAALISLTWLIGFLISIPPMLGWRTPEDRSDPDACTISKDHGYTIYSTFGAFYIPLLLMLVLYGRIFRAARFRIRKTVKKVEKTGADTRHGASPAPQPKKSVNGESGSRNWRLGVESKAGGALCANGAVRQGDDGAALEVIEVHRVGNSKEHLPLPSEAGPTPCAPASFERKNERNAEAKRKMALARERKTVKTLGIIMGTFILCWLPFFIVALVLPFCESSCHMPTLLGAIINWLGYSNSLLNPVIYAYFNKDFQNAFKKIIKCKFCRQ

[18] = biological target: Beta Receptors; assay: NIMH-PDSP radioligand binding assay, Beta Receptors
[19] = biological target: T12, 5-HT5a (Homo sapiens, UniProt P47898); assay: NIMH-PDSP radioligand binding assay, 5-HT5a
T12 construct: NIMH-PDSP
Procedure: as §1

[20] = biological target: T13, Alpha1D (Homo sapiens, UniProt P25100); assay: NIMH-PDSP radioligand binding assay, Alpha1D
T13 construct: NIMH-PDSP

[21] = biological target: T8, 5-HT2A; assay: NIMH-PDSP radioligand binding assay, 5-HT2A
[22] = biological target: NET (Homo sapiens, UniProt P23975); assay: NIMH-PDSP radioligand binding assay, NET
Procedure: as §1

[23] = biological target: DOR, KOR, MOR; assay: NIMH-PDSP radioligand binding assay, DOR, KOR, MOR
[24] = biological target: T14, Alpha1B (Homo sapiens, UniProt P35368); assay: NIMH-PDSP radioligand binding assay, Alpha1B
T14 construct: NIMH-PDSP

[25] = biological target: T15, Sigma1R (Homo sapiens, UniProt Q99720); assay: NIMH-PDSP radioligand binding assay, Sigma1R
T15 construct: NIMH-PDSP
Procedure: as §1

[26] = biological target: T16, 5-HT1E (Homo sapiens, UniProt P28566); assay: NIMH-PDSP radioligand binding assay, 5-HT1E
T16 construct: NIMH-PDSP
Procedure: as §1

[27] = biological target: D1, D5; assay: NIMH-PDSP radioligand binding assay, D1, D5
[28] = biological target: T17, Alpha1A (Homo sapiens, UniProt P35348); assay: NIMH-PDSP radioligand binding assay, Alpha1A; details: text b29 calls it α1-adrenergic receptors
T17 construct: NIMH-PDSP

[29] = biological target: CB1, CB2; assay: NIMH-PDSP radioligand binding assay, CB1, CB2
[30] = biological target: T18, 5-HT1D (Homo sapiens, UniProt P28221); assay: NIMH-PDSP radioligand binding assay, 5-HT1D
T18 construct: NIMH-PDSP
Procedure: as §1

[31] = biological target: Adenosine receptors; assay: NIMH-PDSP radioligand binding assay, Adenosine receptors

T8 sequence (P28223 whole entry, species assumed): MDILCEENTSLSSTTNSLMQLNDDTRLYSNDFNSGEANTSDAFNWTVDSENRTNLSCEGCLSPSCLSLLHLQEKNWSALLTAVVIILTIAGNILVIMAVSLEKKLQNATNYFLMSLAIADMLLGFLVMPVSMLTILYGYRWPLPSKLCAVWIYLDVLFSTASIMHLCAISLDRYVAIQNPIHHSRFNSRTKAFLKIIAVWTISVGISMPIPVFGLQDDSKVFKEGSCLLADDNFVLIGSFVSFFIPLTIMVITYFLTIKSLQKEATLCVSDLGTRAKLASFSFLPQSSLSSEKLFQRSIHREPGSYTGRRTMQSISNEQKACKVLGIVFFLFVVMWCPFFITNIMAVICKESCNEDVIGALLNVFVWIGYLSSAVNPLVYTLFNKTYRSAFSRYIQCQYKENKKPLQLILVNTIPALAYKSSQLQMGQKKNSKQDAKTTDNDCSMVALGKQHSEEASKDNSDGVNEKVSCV
T18 sequence (P28221 whole entry, species assumed): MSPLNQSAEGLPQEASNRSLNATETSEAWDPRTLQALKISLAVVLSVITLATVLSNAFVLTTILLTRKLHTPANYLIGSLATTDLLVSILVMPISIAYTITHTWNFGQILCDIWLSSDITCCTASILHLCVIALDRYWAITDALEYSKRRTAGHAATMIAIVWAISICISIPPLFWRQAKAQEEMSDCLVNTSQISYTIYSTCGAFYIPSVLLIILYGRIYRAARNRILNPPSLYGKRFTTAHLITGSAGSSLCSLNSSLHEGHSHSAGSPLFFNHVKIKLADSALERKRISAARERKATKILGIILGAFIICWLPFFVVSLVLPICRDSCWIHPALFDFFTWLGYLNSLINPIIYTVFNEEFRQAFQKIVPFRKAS
T2 sequence (P18089 whole entry): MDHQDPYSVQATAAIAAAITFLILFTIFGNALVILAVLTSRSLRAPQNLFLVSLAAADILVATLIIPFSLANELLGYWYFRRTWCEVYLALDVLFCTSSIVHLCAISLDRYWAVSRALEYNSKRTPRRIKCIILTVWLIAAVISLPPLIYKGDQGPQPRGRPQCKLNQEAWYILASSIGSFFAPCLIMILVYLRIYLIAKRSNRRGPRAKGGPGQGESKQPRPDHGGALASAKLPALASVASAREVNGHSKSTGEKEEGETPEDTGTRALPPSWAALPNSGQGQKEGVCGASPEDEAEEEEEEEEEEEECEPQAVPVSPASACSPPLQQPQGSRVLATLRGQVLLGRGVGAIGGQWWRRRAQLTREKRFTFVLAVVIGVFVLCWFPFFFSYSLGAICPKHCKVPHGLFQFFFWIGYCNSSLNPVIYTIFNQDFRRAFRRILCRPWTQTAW
T10 sequence (P14416 whole entry): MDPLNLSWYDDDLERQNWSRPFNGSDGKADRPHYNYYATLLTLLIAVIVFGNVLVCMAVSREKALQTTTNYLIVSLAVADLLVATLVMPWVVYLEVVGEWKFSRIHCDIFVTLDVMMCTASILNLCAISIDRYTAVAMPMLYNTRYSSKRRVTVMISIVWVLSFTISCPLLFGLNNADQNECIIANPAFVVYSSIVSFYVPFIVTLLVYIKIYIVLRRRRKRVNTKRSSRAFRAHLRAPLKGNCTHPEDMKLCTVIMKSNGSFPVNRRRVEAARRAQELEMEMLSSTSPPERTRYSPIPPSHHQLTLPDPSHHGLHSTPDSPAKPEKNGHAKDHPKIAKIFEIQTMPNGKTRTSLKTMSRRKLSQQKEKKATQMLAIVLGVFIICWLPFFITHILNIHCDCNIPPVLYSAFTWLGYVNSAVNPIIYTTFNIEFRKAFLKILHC
T17 sequence (P35348 whole entry): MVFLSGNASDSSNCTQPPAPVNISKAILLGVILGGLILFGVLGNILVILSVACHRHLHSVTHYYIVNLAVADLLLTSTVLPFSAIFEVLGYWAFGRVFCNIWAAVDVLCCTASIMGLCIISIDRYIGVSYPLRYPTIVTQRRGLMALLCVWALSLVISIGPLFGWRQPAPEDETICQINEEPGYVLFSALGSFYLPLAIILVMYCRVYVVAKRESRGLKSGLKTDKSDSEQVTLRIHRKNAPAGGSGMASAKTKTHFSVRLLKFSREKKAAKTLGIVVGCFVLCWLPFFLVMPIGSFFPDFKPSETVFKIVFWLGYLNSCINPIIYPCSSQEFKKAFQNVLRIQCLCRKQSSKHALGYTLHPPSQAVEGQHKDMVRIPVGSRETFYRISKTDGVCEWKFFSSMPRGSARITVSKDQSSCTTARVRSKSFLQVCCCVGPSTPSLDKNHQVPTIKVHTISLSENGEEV
T16 sequence (P28566 whole entry, species assumed): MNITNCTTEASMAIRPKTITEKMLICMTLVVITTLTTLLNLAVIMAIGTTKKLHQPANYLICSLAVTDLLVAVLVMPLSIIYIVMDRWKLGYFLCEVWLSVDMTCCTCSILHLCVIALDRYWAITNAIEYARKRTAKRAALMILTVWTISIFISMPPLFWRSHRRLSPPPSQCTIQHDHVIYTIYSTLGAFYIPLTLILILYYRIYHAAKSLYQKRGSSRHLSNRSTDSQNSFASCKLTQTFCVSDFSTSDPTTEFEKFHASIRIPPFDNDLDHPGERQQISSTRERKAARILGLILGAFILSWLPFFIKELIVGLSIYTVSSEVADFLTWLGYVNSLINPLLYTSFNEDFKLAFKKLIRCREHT
T13 sequence (P25100 whole entry): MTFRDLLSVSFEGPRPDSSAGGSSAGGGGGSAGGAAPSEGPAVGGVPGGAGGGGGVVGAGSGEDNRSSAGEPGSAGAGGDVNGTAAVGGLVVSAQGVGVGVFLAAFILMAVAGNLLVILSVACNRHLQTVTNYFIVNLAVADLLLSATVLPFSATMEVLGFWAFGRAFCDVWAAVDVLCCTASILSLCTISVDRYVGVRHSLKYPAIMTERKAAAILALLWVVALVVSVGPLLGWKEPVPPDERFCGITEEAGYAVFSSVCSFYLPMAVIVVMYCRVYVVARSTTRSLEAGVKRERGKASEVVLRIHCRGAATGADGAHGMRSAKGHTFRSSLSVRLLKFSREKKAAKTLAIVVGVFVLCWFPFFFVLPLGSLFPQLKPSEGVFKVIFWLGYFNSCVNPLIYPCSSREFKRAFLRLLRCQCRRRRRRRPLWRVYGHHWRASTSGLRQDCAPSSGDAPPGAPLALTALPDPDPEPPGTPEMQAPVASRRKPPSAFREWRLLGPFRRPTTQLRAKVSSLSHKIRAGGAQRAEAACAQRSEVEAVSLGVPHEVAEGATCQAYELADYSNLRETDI
Sequence of SERT (P31645 whole entry, species assumed): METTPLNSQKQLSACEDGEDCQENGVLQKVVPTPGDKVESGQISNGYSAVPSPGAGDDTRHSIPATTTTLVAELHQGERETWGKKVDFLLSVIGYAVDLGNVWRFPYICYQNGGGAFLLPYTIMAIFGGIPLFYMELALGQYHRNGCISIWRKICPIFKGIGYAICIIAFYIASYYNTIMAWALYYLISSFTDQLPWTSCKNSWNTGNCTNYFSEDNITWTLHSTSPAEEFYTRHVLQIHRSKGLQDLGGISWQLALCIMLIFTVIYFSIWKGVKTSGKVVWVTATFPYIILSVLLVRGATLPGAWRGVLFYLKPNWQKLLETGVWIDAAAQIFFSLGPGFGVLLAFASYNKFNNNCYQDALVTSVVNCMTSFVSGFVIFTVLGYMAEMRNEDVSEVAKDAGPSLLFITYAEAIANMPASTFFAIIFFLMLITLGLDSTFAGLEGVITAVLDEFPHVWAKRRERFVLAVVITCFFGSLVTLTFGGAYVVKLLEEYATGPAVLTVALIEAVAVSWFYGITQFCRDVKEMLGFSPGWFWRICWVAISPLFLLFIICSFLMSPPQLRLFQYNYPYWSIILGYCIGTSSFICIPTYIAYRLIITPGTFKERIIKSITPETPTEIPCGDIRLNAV
T6 sequence (P41595 whole entry, species assumed): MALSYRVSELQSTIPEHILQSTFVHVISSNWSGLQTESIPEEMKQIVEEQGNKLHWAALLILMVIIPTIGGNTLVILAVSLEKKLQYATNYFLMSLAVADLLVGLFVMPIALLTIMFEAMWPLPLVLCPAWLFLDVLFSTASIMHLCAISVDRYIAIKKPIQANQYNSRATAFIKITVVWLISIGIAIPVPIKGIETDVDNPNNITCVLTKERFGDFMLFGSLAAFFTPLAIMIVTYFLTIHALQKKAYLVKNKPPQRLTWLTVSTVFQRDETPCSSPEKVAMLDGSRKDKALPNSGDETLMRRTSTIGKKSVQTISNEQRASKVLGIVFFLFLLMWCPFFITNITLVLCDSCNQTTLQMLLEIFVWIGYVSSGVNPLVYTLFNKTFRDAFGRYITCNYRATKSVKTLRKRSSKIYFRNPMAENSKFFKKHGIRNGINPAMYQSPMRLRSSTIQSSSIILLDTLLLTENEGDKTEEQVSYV
T12 sequence (P47898 whole entry, species assumed): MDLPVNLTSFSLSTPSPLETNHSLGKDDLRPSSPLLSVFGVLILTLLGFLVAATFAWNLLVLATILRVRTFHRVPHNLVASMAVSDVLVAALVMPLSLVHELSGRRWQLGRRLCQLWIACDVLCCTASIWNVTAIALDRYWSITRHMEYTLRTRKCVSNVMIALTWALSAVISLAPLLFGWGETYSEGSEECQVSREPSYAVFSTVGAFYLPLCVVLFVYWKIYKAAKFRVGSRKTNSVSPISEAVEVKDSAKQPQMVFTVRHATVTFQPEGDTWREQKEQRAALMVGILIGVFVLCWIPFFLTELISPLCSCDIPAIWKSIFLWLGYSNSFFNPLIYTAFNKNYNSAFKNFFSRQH
T15 sequence (Q99720 whole entry, species assumed): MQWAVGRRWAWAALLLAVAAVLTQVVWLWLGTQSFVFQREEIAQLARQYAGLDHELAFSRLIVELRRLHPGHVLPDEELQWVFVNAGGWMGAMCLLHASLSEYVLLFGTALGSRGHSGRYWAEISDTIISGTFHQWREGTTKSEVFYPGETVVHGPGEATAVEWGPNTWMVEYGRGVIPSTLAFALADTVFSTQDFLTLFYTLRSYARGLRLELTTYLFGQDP

Structure (SMILES) | pKi [1] | pKi [2] | pKi [3] | pKi [4] | pKi [5] | pKi [6] | pKi [7] | pKi [8] | pKi [9] | affinity to 5-HT2A [10] | pKi [11] | pKi [12] | pKi [13] | pKi [14] | pKi [15] | pKi [16] | pKi [17] | Binding affinity ratios of 5-HT1A and α1-adrenergic receptors [17] | pKi [18] | pKi [19] | other results
COc1ccccc1N1CCN(CCCN/C(=N\C#N)c2ccccn2)CC1 [Compound 1] | < 5.00 | < 5.00 | 6.17 | < 5.00 | 6.86 | 6.34 | < 5.00 | 6.39 | < 5.00 | high affinities | < 5.00 | < 5.00 | 6.11 | < 5.00 | < 5.00 | < 5.00 | 7.66 | ~ 6 | < 5.00 | < 5.00 | pKi [20]: 6.67; pKi [21]: < 5.00; pKi [22]: < 5.00; pKi [23]: < 5.00; pKi [24]: 5.97; pKi [25]: 6.28; pKi [26]: < 5.00; pKi [27]: < 5.00; pKi [28]: 6.89; pKi [29]: < 5.00; pKi [30]: < 5.00; pKi [31]: < 5.00
COc1ccccc1N1CCN(CCNC(=O)c2ccccn2)CC1 [Compound 2] | < 5.00 | < 5.00 | < 5.00 | < 5.00 | 7.06 | < 5.00 | < 5.00 | 6.29 | < 5.00 | high affinities | < 5.00 | < 5.00 | < 5.00 | < 5.00 | < 5.00 | < 5.00 | 8.11 | ~ 6 | < 5.00 | < 5.00 | pKi [20]: 7.28; pKi [21]: < 5.00; pKi [22]: < 5.00; pKi [23]: < 5.00; pKi [24]: 6.60; pKi [25]: < 5.00; pKi [26]: < 5.00; pKi [27]: < 5.00; pKi [28]: 7.34; pKi [29]: < 5.00; pKi [30]: < 5.00; pKi [31]: < 5.00
